The text below walks through data of ChEMBL document CHEMBL3992519 (J Med Chem, 2017).

Data set [1] deals with T1, Orexin/Hypocretin receptor type 1 (Homo sapiens, UniProt O43613).
T1 sequence (O43613 whole entry): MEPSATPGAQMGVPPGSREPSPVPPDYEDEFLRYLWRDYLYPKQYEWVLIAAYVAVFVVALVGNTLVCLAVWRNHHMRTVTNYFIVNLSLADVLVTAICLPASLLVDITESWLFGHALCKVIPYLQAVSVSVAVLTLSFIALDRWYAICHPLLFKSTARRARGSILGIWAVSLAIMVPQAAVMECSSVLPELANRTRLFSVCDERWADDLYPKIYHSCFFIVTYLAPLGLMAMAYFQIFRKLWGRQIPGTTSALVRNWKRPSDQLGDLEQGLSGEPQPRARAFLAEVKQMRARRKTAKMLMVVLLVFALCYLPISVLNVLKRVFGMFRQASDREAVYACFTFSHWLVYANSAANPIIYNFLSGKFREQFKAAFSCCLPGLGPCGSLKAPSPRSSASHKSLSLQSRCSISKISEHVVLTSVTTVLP
Put plainly: Antagonist activity at human OX1R expressed in CHOK1 cells assessed as inhibition of orexin A-induced intracellular calcium level preincubated for 15 mins followed by orexin A addition by Fura-2-AM dye based fluorescence assay. On the technique in general: Calcium flux is commonly read through the fluorescence of an indicator in the cells.

Data set [2] in a line: Solubility of the compound in water. Conditions: buffer. The data set is classed as physicochemical.
Data set [3] can be described thus: Solubility of the compound in saline. The data set is classed as physicochemical. As to conditions: buffer.
Data set [4] in a line: Selectivity index, ratio of IC50 for human OX2R expressed in CHOK1 cells to IC50 for human OX1R expressed in CHOK1 cells.

`CN(C)c1ccc(S(=O)(=O)N2CC[C@]34c5c6ccc(O)c5O[C@H]3[C@H](N(C)C(=O)/C=C/c3ccoc3)CC[C@@]4(O)[C@H]2C6)cc1`: the Ki in data set [1] turned out to be 320 nM.
As for `CN(Cc1ccccc1)[C@@H]1CC[C@@]2(O)[C@H]3Cc4ccc(O)c5c4[C@@]2(CCN3CC2CC2)[C@H]1O5.Cl`, the solubility entry in data set [2] and in data set [3] was “Insoluble” in each case. Further, the “Ratio IC50” value in data set [4] is on record as below 88.4.
`COc1ccc2c3c1O[C@H]1[C@H](N(C)C(=O)/C=C/c4ccoc4)CC[C@@]4(O)[C@@H](C2)N(S(=O)(=O)c2cccc([N+](=O)[O-])c2)CC[C@]314`: in data set [1], the Ki came out at 5.05 nM. Moreover, the solubility entry in data set [2] and in data set [3] was “Insoluble” each time. For the same compound, the “Ratio IC50” value in data set [4] is below 88.4.
Consider `COc1ccc2c3c1O[C@H]1[C@H](N(C)C(=O)/C=C/c4ccoc4)CC[C@@]4(O)[C@@H](C2)N(S(=O)(=O)c2ccccc2F)CC[C@]314`, for which, in data set [1], the Ki worked out at 2.07 nM. In addition, the solubility result in data set [2] and in data set [3] was “Insoluble” in each case. Moreover, in data set [4], the “Ratio IC50” value is reported as below 88.4.
As for `COc1cccc(S(=O)(=O)N2CC[C@]34c5c6ccc(OC)c5O[C@H]3[C@H](N(C)C(=O)/C=C/c3ccoc3)CC[C@@]4(O)[C@H]2C6)c1`, the Ki in data set [1] was 2.44 nM. The solubility entry in data set [2] and in data set [3] was “Insoluble” each time. Further, the “Ratio IC50” value in data set [4] was below 88.4.
On to `COc1ccc2c3c1O[C@H]1[C@H](N(C)C(=O)/C=C/c4ccoc4)CC[C@@]4(O)[C@@H](C2)N(S(=O)(=O)c2cccc(N(C)C)c2)CC[C@]314.Cl`, for which the Ki in data set [1] was 7.25 nM. Also, the solubility entry in data set [2] and in data set [3] was “Insoluble” throughout. Further, the “Ratio IC50” value in data set [4] is below 88.4.
Consider `COc1ccccc1S(=O)(=O)N1CC[C@]23c4c5ccc(OC)c4O[C@H]2[C@H](N(C)C(=O)/C=C/c2ccoc2)CC[C@@]3(O)[C@H]1C5`, for which the Ki in data set [1] turned out to be 6.37 nM. In addition, the solubility result in data set [2] and in data set [3] was “Insoluble” each time. Further, the “Ratio IC50” value in data set [4] is below 88.4.
Regarding `COc1ccc2c3c1O[C@H]1[C@H](N(C)C(=O)/C=C/c4ccoc4)CC[C@@]4(O)[C@@H](C2)N(S(=O)(=O)c2ccc(Cl)cc2)CC[C@]314`, the inhibitory constant (Ki) in data set [1] was 5.13 nM. For the same compound, the solubility result in data set [2] and in data set [3] was “Insoluble” in each case. The “Ratio IC50” value in data set [4] is below 88.4.
For the compound `COc1ccc2c3c1O[C@H]1[C@H](N(C)C(=O)/C=C/c4ccoc4)CC[C@@]4(O)[C@@H](C2)N(S(=O)(=O)c2ccc(C)cc2)CC[C@]314`, the Ki in data set [1] stood at 5.85 nM. Also, the solubility result in data set [2] and in data set [3] was “Insoluble” each time. Moreover, the “Ratio IC50” value in data set [4] is listed as below 88.4.
`COc1ccc2c3c1O[C@H]1[C@H](N(C)C(=O)/C=C/c4ccoc4)CC[C@@]4(O)[C@@H](C2)N(S(=O)(=O)c2ccc(Br)cc2)CC[C@]314`: the Ki in data set [1] worked out at 6.21 nM. Besides, the solubility entry in data set [2] and in data set [3] was “Insoluble” in each case. Moreover, in data set [4], the “Ratio IC50” value was below 88.4.
Turning to `COc1ccc2c3c1O[C@H]1[C@H](N(C)C(=O)/C=C/c4ccoc4)CC[C@@]4(O)[C@@H](C2)N(S(=O)(=O)c2ccccc2C(F)(F)F)CC[C@]314`, the inhibition constant (Ki) in data set [1] worked out at 2.05 nM. Further, the solubility result in data set [2] and in data set [3] was “Insoluble” each time. Further, the “Ratio IC50” value in data set [4] is below 88.4.
With `COc1ccc2c3c1O[C@H]1[C@H](N(C)C(=O)/C=C/c4ccoc4)CC[C@@]4(O)[C@@H](C2)N(S(=O)(=O)c2cccc(C#N)c2)CC[C@]314`, the Ki in data set [1] came to 7.3 nM. Further, the solubility result in data set [2] and in data set [3] was “Insoluble” each time. For the same compound, the “Ratio IC50” value in data set [4] is listed as below 88.4.
For `COc1ccc2c3c1O[C@H]1[C@H](N(C)C(=O)/C=C/c4ccoc4)CC[C@@]4(O)[C@@H](C2)N(S(=O)(=O)c2cccc(Br)c2)CC[C@]314`, in data set [1], the Ki worked out at 2.27 nM. Also, the solubility entry in data set [2] and in data set [3] was “Insoluble” in each case. In addition, the “Ratio IC50” value in data set [4] was below 88.4.
In the case of `COc1ccc2c3c1O[C@H]1[C@H](N(C)C(=O)/C=C/c4ccoc4)CC[C@@]4(O)[C@@H](C2)N(S(=O)(=O)c2cccc(C(F)(F)F)c2)CC[C@]314`, the Ki in data set [1] worked out at 6.19 nM. Further, the solubility entry in data set [2] and in data set [3] was “Insoluble” in each case. Also, the “Ratio IC50” value in data set [4] is below 88.4.
Take `COc1ccc2c3c1O[C@H]1[C@H](N(C)C(=O)/C=C/c4ccoc4)CC[C@@]4(O)[C@@H](C2)N(S(=O)(=O)c2ccc(C#N)cc2)CC[C@]314`: the Ki in data set [1] stood at 13.9 nM. Besides, the solubility entry in data set [2] and in data set [3] was “Insoluble” each time. Further, the “Ratio IC50” value in data set [4] is given as below 88.4.
In the case of `COc1ccc2c3c1O[C@H]1[C@H](N(C)C(=O)/C=C/c4cccnc4)CC[C@@]4(O)[C@@H](C2)N(S(=O)(=O)c2ccccc2N(C)C)CC[C@]314`, the Ki in data set [1] amounted to 42.3 nM.
For `CN(C(=O)/C=C/c1ccco1)[C@@H]1CC[C@@]2(O)[C@H]3Cc4ccc(O)c5c4[C@@]2(CCN3CC2CC2)[C@H]1O5`, the Ki in data set [1] came out at 751 nM. The solubility result in data set [2] and in data set [3] was “Insoluble” throughout. Also, in data set [4], the “Ratio IC50” value is below 88.4.
Take `COc1ccc2c3c1O[C@H]1[C@H](N(C)C(=O)/C=C/c4ccoc4)CC[C@@]4(O)[C@@H](C2)N(S(=O)(=O)c2cccc(C)c2)CC[C@]314`: in data set [1], the inhibition constant (Ki) came to 2.98 nM. The solubility entry in data set [2] and in data set [3] was “Insoluble” in each case. The “Ratio IC50” value in data set [4] is on record as below 88.4.
Take `COc1ccc2c3c1O[C@H]1[C@H](N(C)C(=O)/C=C/c4ccoc4)CC[C@@]4(O)[C@@H](C2)N(S(=O)(=O)C2CC2)CC[C@]314`: the Ki in data set [1] is 12.1 nM. For the same compound, the solubility entry in data set [2] and in data set [3] was “Insoluble” throughout. In data set [4], the “Ratio IC50” value was below 88.4.
Turning to `COc1ccc2c3c1O[C@H]1[C@H](N(C)C(=O)/C=C/c4ccoc4)CC[C@@]4(O)[C@@H](C2)N(S(=O)(=O)c2ccccc2Cl)CC[C@]314`, the inhibitory constant (Ki) in data set [1] amounted to 1.93 nM. Further, the solubility entry in data set [2] and in data set [3] was “Insoluble” each time. Further, the “Ratio IC50” value in data set [4] is reported as below 88.4.
Regarding `COc1ccc(S(=O)(=O)N2CC[C@]34c5c6ccc(OC)c5O[C@H]3[C@H](N(C)C(=O)/C=C/c3ccoc3)CC[C@@]4(O)[C@H]2C6)cc1`, the inhibition constant (Ki) in data set [1] was found to be 8.99 nM. Besides, the solubility entry in data set [2] and in data set [3] was “Insoluble” in each case. Moreover, the “Ratio IC50” value in data set [4] is on record as below 88.4.
For `COc1ccc2c3c1O[C@H]1[C@H](N(C)C(=O)/C=C/c4ccoc4)CC[C@@]4(O)[C@@H](C2)N(S(=O)(=O)c2ccc([N+](=O)[O-])cc2)CC[C@]314`, in data set [1], the Ki came out at 12.5 nM. Besides, the solubility result in data set [2] and in data set [3] was “Insoluble” each time. In addition, the “Ratio IC50” value in data set [4] is reported as below 88.4.
For `COc1ccc2c3c1O[C@H]1[C@H](N(C)C(=O)/C=C/c4ccccn4)CC[C@@]4(O)[C@@H](C2)N(S(=O)(=O)c2ccccc2N(C)C)CC[C@]314`, in data set [1], the Ki turned out to be 1.36 nM.

Broadly, the Ki is a dissociation constant, usually derived from enzyme kinetics or from competition with a known ligand.
